# Data published in patent US7259004B1, “Endophytic streptomycetes from higher plants with biological activity” (Montana State University, priority 2002, dated 2007).
# Key:
# E. faecium 49624 = test: microbroth dilution MIC; format: cell-based, Enterococcus faecium
# [1] = system: DNA synthesis in Bacillus subtilis; test: macromolecular synthesis whole cell assay, [3H]thymidine incorporation; format: cell-based; settings: for % [3H]thymidine (DNA synthesis) incorporation of that of the untreated culture: 1×MIC
# [2] = system: Streptococcus pneumoniae 700674; test: microbroth dilution MIC
# Cryptococcus neoformans = test: microbroth dilution MIC
# [3] = system: Enterococcus faecium ATCC 51559; test: disk diffusion assay; format: cell-based; settings: 10 micrograms per disk; ciprofloxacin 5, vancomycin 30 micrograms per disk; 35° C.
# Aspergillus fumigatus = test: microbroth dilution MIC
# Bacillus anthracis K8902 = format: cell-based; settings: 10 micrograms per disk; ciprofloxacin 5, vancomycin 30 micrograms per disk; 35° C.
# [4] = system: Candida glabrata ATCC 2001; test: disk diffusion assay; format: cell-based; settings: 10 micrograms per disk; 35° C. Note: key: R = resistant.
# [5] = system: Candida parasilosis ATCC 22019; test: disk diffusion assay; format: cell-based, Candida parapsilosis; settings: 10 micrograms per disk; 35° C. Note: key: R = resistant.
# [6] = system: Enterococcus faecalis ATCC 51299 (VRE); test: microbroth dilution MIC; format: cell-based; settings: for MIC Enterococcus faecalis ATCC 51299: resistant to vancomycin, first listing in Table 4; for MIC E. faecalis VRE 51299: third listing in Table 4
# [7] = system: Saccharomyces cerevisiae ATCC 9763; test: disk diffusion assay; format: cell-based; settings: 10 micrograms per disk; 35° C. Note: key: R = resistant.
# Bacillus cereus 4342 = test: microbroth dilution MIC; format: cell-based
# [8] = system: RNA synthesis in Bacillus subtilis; test: macromolecular synthesis whole cell assay, [3H]uridine incorporation; format: cell-based; settings: for % [3H]uridine (RNA synthesis) incorporation of that of the untreated culture: 1×MIC
# Pythium ultimum = test: microbroth dilution MIC, plant associated microorganisms; format: cell-based; settings: PD broth, 48 hours at 23° C.
# Method: (§1) Incubation was for 48 hours at 23° C. A plant pathogenic strain of Pseudomonas syringae was also tested using the same PD broth medium and with concentrations of colony forming units as given above. The organisms were obtained from the Montana State University plant pathogen culture collection administered by Dr. […] The relative activities against plant pathogenic fungi ranged from a few tenths of a microgram up to thirty micrograms. Table 2 provides the results of tests of inhibitory activity of the munumbicins against various plant-pathogenic fungi and one pathogenic bacterium. The data are reported as MIC values in micrograms/ml.
# Geotrichum candidum = test: as above; format: cell-based; settings: PD broth, 48 hours at 23° C.
# Method: as §1
# Pseudomonas syringae = test: as above; format: cell-based; settings: PD broth
# Method: as §1
# Phytophthora cinnamomi = test: as above; format: cell-based; settings: PD broth, 48 hours at 23° C.
# Method: as §1
# Sclerotinia sclerotiorum = test: as above; format: cell-based; settings: PD broth, 48 hours at 23° C.
# Method: as §1
# Rhizoctonia solani = test: as above; format: cell-based; settings: PD broth, 48 hours at 23° C.
# Method: as §1
# [9] = system: Shigella dysenteriae ATCC 11835; test: disk diffusion assay; format: cell-based; settings: 10 micrograms per disk; 35° C.
# [10] = system: Protein synthesis in Bacillus subtilis; test: macromolecular synthesis whole cell assay, [3H]amino acid mixture incorporation; format: cell-based; settings: for % [3H]amino acid mixture (Protein synthesis) incorporation of that of the untreated culture: 1×MIC
# [11] = system: Staphylococcus aureus ATCC 33591 (MRSA); test: microbroth dilution MIC; format: cell-based; settings: for MIC MRSA 33591: second listing in Table 4
# Candida krusei ATCC 6258 = test: disk diffusion assay; format: cell-based; settings: 10 micrograms per disk; 35° C.
# [12] = system: Cell wall synthesis in Bacillus subtilis; test: macromolecular synthesis whole cell assay, [3H]N-acetyl glucosamine incorporation; format: cell-based; settings: for % [3H]N-acetyl glucosamine (Cell wall synthesis) incorporation of that of the untreated culture: 1×MIC
# Bacillus subtilis = test: microbroth dilution MIC
# [13] = system: Candida albicans ATCC 90028; test: disk diffusion assay; format: cell-based; settings: 10 micrograms per disk; 35° C. Note: key: R = resistant.
# [14] = system: Neisseria gonnorhea ATCC 49226; test: disk diffusion assay; format: cell-based; settings: 10 micrograms per disk; ciprofloxacin 5, vancomycin 30 micrograms per disk; GC agar with 1% growth supplement with 5% CO2
# [15] = system: Staphyloccus aureus MH II Eli Lilly Co.; test: microbroth dilution MIC; settings: drug sensitive strain
# Candida albicans = test: microbroth dilution MIC
Substance,MIC E. faecium 49624 (E. faecium 49624),MIC Streptococcus pneumoniae 700674 [2],MIC Cryptococcus neoformans (Cryptococcus neoformans),"diameter of the zone of inhibition, Enterococcus faecium ATCC 51559 [3]",MIC Aspergillus fumigatus (Aspergillus fumigatus),"diameter of the zone of inhibition, Bacillus anthracis K8902 (Bacillus anthracis K8902)","diameter of the zone of inhibition, Candida glabrata ATCC 2001 [4]","diameter of the zone of inhibition, Candida parasilosis ATCC 22019 [5]",MIC Enterococcus faecalis ATCC 51299 [6],MIC E. faecalis VRE 51299 [6],"diameter of the zone of inhibition, Saccharomyces cerevisiae ATCC 9763 [7]",MIC Bacillus cereus 4342 (Bacillus cereus 4342),MIC Pythium ultimum (Pythium ultimum),MIC Geotrichum candidum (Geotrichum candidum),MIC Pseudomonas syringae (Pseudomonas syringae),MIC Phytophthora cinnamomi (Phytophthora cinnamomi),MIC Sclerotinia sclerotiorum (Sclerotinia sclerotiorum),MIC Rhizoctonia solani (Rhizoctonia solani),"diameter of the zone of inhibition, Shigella dysenteriae ATCC 11835 [9]",MIC MRSA 33591 [11],also measured
munumbicin B,0.5 micrograms/ml,0.5 micrograms/ml,10 micrograms/ml,26 mm,20 micrograms/ml,18 mm,R,R,12.5 micrograms/ml,0.5 micrograms/ml,R,0.5 micrograms/ml,0.2 micrograms/ml,31.2 micrograms/ml,2.0 micrograms/ml,6.2 micrograms/ml,0.20 micrograms/ml,8.0 micrograms/ml,R,0.5 micrograms/ml,"effect on DNA synthesis (in words) [1]: no effect; % [3H]thymidine (DNA synthesis) incorporation of that of the untreated culture ([1]; 5 min): 93%; % [3H]thymidine (DNA synthesis) incorporation of that of the untreated culture ([1]; 10 min): 102%; MIC E. faecalis 51299 ([6]; second listing in Table 4): 8 micrograms/ml; effect on RNA synthesis (in words) [8]: some inhibitory effect; % [3H]uridine (RNA synthesis) incorporation of that of the untreated culture ([8]; 5 min): 64%; % [3H]uridine (RNA synthesis) incorporation of that of the untreated culture ([8]; 10 min): 59%; effect on protein synthesis (in words) [10]: milder inhibitory effect; % [3H]amino acid mixture (Protein synthesis) incorporation of that of the untreated culture ([10]; 5 min): 85%; % [3H]amino acid mixture (Protein synthesis) incorporation of that of the untreated culture ([10]; 10 min): 74%; MIC Staphylococcus aureus ATCC 33591 ([11]; methicillin resistant strain, first listing in Table 4): 2.5 micrograms/ml; diameter of the zone of inhibition, Candida krusei ATCC 6258 (Candida krusei ATCC 6258): R; effect on cell wall synthesis (in words) [12]: some inhibitory effect; % [3H]N-acetyl glucosamine (Cell wall synthesis) incorporation of that of the untreated culture ([12]; 5 min): 81%; % [3H]N-acetyl glucosamine (Cell wall synthesis) incorporation of that of the untreated culture ([12]; 10 min): 59%; MIC Bacillus subtilis (Bacillus subtilis; first listing in Table 4): 8 micrograms/ml; MIC Bacillus subtilis (Bacillus subtilis; second listing in Table 4): 2 micrograms/ml; diameter of the zone of inhibition, Candida albicans ATCC 90028 [13]: R; diameter of the zone of inhibition, Neisseria gonnorhea ATCC 49226 [14]: 14 mm"
munumbicin C,0.5 micrograms/ml,0.125 micrograms/ml,10 micrograms/ml,28 mm,20 micrograms/ml,R,R,R,16 micrograms/ml,0.5 micrograms/ml,R,0.25 micrograms/ml,4.0 micrograms/ml,15.6 micrograms/ml,15.6 micrograms/ml,1.5 micrograms/ml,8.0 micrograms/ml,1.5 micrograms/ml,R,0.5 micrograms/ml,"concentration causing detectable lysis of human red blood cells (human red blood cells): > 80 micrograms/ml; MIC Staphyloccus aureus MH II Eli Lilly Co. [15]: 0.4 micrograms/ml; MIC Candida albicans (Candida albicans): >10 micrograms/ml; diameter of the zone of inhibition, Candida krusei ATCC 6258 (Candida krusei ATCC 6258): 8 mm; MIC Bacillus subtilis (Bacillus subtilis; first listing in Table 4): >8 micrograms/ml; MIC Bacillus subtilis (Bacillus subtilis; second listing in Table 4): 0.25 micrograms/ml; diameter of the zone of inhibition, Candida albicans ATCC 90028 [13]: R; diameter of the zone of inhibition, Neisseria gonnorhea ATCC 49226 [14]: 8 mm"
